Patent US20250049831A1, “ANTIVIRAL USE OF BISE[…], AND BISEPOXYLIGNAN COMPOSITION AND PREPARATION OF BISE[…]” (priority 2021, published 2025)

Each compound was assayed on COVID-19 virus (assay: In-vitro antiviral CPE test in Vero E6 cells, COVID-19 virus).
Assay type: cell-based

Row | SMILES | COVID-19 virus SI
1 | COc1cc(O)cc(C2OCC3C(c4ccc(OC5OC(CO)C(O)C(O)C5O)c(OC)c4)OCC23)c1 (stereo not shown) [compound 1] | 31.61
2 | COc1ccc([C@H]2OC[C@H]3[C@@H]2CO[C@H]3c2ccc(O[C@@H]3O[C@H](CO)[C@@H](O)[C@H](O)[C@H]3O)c(OC)c2)cc1OC [compound 2] | 30.50
3 | COc1ccc(C2OCC3C(c4ccc(OC)c(OC)c4)OCC23)cc1O (stereo not shown) [compound 3] | 5.33
4 | COc1ccc(C2OCC3C(c4ccc(OC(=O)C(C)c5ccc(CC(C)C)cc5)c(OC)c4)OCC23)cc1OC (stereo not shown) [compound 6] | 4.72
